One assay has as its system SW 1116. Kind of assay: Antiproliferative activity against human SW1116 cells after 48 hrs by MTT assay. Particulars: SW 1116, 48 h. Background: Formazan colour is commonly taken as a measure of viable cells.
In another assay the test system is BGC-823. Kind of assay: cells. Particulars: Homo sapiens, BGC-823, 48 h.
The test system of the next assay is HeLa. Kind of assay: cells. Particulars: Homo sapiens, 48 h.
A further assay relates to HepG2. In words: cells. Particulars: Homo sapiens, HepG2, 48 h.

As usually defined, the IC50 is the concentration needed to halve the response being measured. A lower IC50 goes with greater potency in that assay.

Description for BGC-823: Antiproliferative activity against human BGC823 cells after 48 hrs by MTT assay

As to `Fc1ccc(N2CCN(Cn3nc(-c4ccc5c(c4)OCCO5)oc3=S)CC2)cc1`, the IC50 with SW 1116, in the assay on BGC-823, in the assay on HeLa and in the assay with HepG2 was above 50 µM in each case.

As for `O=[N+]([O-])c1ccc(N2CCN(Cn3nc(-c4ccc5c(c4)OCCO5)oc3=S)CC2)cc1`, the IC50 is above 50 µM in the assay on SW 1116, above 50 µM in the assay on BGC-823, 31.7 µM with HeLa and 29.5 µM in the assay on HepG2.

`S=c1oc(-c2ccc3c(c2)OCCO3)nn1CN1CCN(c2cccc(Cl)c2Cl)CC1`: the IC50 in the assay with SW 1116 is 37.1 µM; with BGC-823 it was 22.6 µM; with HeLa, above 50 µM; in the assay on HepG2, above 50 µM.

Regarding `S=c1oc(-c2ccc3c(c2)OCCO3)nn1CN1CCN(c2ccccn2)CC1`, the IC50 stood at 9.49 µM in the assay with SW 1116, 25.9 µM with BGC-823, 25.1 µM in the assay on HeLa and 11.3 µM with HepG2.

`S=c1oc(-c2ccc3c(c2)OCCO3)nn1CN1CCN(c2ccccc2)CC1`: the IC50 in the assay on SW 1116, in the assay with BGC-823, in the assay on HeLa and in the assay with HepG2 was above 50 µM throughout.

For `Cc1ccc(N2CCN(Cn3nc(-c4ccc5c(c4)OCCO5)oc3=S)CC2)c(C)c1`, the concentration for half-maximal inhibition (IC50) in the assay with SW 1116 was above 50 µM; in the assay on BGC-823, 28.3 µM; in the assay with HeLa, above 50 µM; in the assay on HepG2, 28.4 µM.

Consider `FC(F)(F)c1cccc(N2CCN(Cn3nc(-c4ccc5c(c4)OCCO5)oc3=S)CC2)c1`, for which the IC50 in the assay with SW 1116 is 47.1 µM; with BGC-823, above 50 µM; in the assay on HeLa, above 50 µM; in the assay on HepG2 it was 5.78 µM.

`COc1ccc(N2CCN(Cn3nc(-c4ccc5c(c4)OCCO5)oc3=S)CC2)cc1`: the IC50 is 24.2 µM with SW 1116, 18.9 µM in the assay on BGC-823, above 50 µM in the assay on HeLa and above 50 µM with HepG2.

With `Fc1ccccc1N1CCN(Cn2nc(-c3ccc4c(c3)OCCO4)oc2=S)CC1`, the IC50 was 37.8 µM in the assay on SW 1116, above 50 µM in the assay on BGC-823, 37.3 µM in the assay on HeLa and above 50 µM in the assay with HepG2.

Consider `S=c1oc(-c2ccc3c(c2)OCCO3)nn1CN1CCN(C(c2ccccc2)c2ccccc2)CC1`, for which the IC50 in the assay on SW 1116 is 21.6 µM; with BGC-823, above 50 µM; in the assay on HeLa, above 50 µM; with HepG2, 9.12 µM.

`S=c1oc(-c2ccc3c(c2)OCCO3)nn1CN1CCN(c2ccc(Cl)cc2)CC1`: the IC50 in the assay with SW 1116, in the assay with BGC-823, in the assay with HeLa and with HepG2 was above 50 µM in each case.

For the compound `O=c1[nH]cc(F)c(=O)[nH]1` [FLUOROURACIL], the IC50 with SW 1116 came out at 18.5 µM; in the assay with BGC-823, 17.4 µM; in the assay with HeLa, 9.02 µM; in the assay with HepG2 it was 13.3 µM.

As for `S=c1oc(-c2ccc3c(c2)OCCO3)nn1CN1CCN(c2cccc(Cl)c2)CC1`, the IC50 in the assay with SW 1116 was above 50 µM; with BGC-823, above 50 µM; with HeLa, 47.2 µM; with HepG2, above 50 µM.

Turning to `COc1cccc(N2CCN(Cn3nc(-c4ccc5c(c4)OCCO5)oc3=S)CC2)c1`, the IC50 in the assay on SW 1116 was above 50 µM; with BGC-823 it was above 50 µM; in the assay with HeLa, 18 µM; with HepG2, 21.4 µM.

Take `COc1ccccc1N1CCN(Cn2nc(-c3ccc4c(c3)OCCO4)oc2=S)CC1`: the IC50 in the assay with SW 1116 is 16.9 µM; in the assay with BGC-823 it was 19.5 µM; in the assay with HeLa, above 50 µM; with HepG2, 15.5 µM.

For `S=c1oc(-c2ccc3c(c2)OCCO3)nn1CN1CCN(Cc2ccccc2)CC1`, the IC50 was above 50 µM in the assay on SW 1116, 28.7 µM with BGC-823, 27.1 µM in the assay with HeLa and 18 µM in the assay on HepG2.

On to `S=c1oc(-c2ccc3c(c2)OCCO3)nn1CN1CCN(c2ccccc2Cl)CC1`, for which the IC50 in the assay on SW 1116 was above 50 µM; in the assay on BGC-823, above 50 µM; in the assay on HeLa, 37.4 µM; in the assay with HepG2, 11.4 µM.

As for `S=c1oc(-c2ccc3c(c2)OCCO3)nn1CN1CCN(c2ccc(Cl)c(Cl)c2)CC1`, the IC50 in the assay on SW 1116 was 33.4 µM; in the assay on BGC-823, above 50 µM; in the assay with HeLa, above 50 µM; with HepG2, 23.8 µM.

Source of the values: ChEMBL document CHEMBL4017451, “Discovery of a series of 1,3,4-oxadiazole-2(3H)-thione derivatives containing piperazine skeleton as potential FAK inhibitors” (Bioorg Med Chem, 2017).
